# In ChEMBL document CHEMBL1148995, “Antitumor agents from bohemic acid complex, VI. Schaunardimycin” (J Nat Prod, 1984):
# Assays:
# L1210 [1] = test: Antitumor activity against mouse L1210 cells implanted in CDF1 mouse assessed as median survival time at 25.6 mg/kg, ip single dose on day 1; type: functional; conditions: route intraperitoneal
# L1210 [2] = test: Antitumor activity against mouse L1210 cells implanted in CDF1 mouse assessed as median survival time at 12.8 mg/kg, ip single dose on day 1; type: functional; conditions: route intraperitoneal
# L1210 [3] = test: Antitumor activity against mouse L1210 cells implanted in CDF1 mouse assessed as median survival time at 6.4 mg/kg, ip single dose on day 1; type: functional; conditions: route intraperitoneal
# L1210 [4] = test: Antitumor activity against mouse L1210 cells implanted in CDF1 mouse assessed as median survival time at 3.2 mg/kg, ip single dose on day 1; type: functional; conditions: route intraperitoneal
# L1210 [5] = test: Antitumor activity against mouse L1210 cells implanted in CDF1 mouse assessed as median survival time at 1.6 mg/kg, ip single dose on day 1; type: functional; conditions: route intraperitoneal
# L1210 [6] = test: Antitumor activity against mouse L1210 cells implanted in CDF1 mouse assessed as median survival time at 0.8 mg/kg, ip single dose on day 1; type: functional; conditions: route intraperitoneal
# L1210 [7] = test: Antitumor activity against mouse L1210 cells implanted in CDF1 mouse assessed as median survival time at 0.4 mg/kg, ip single dose on day 1; type: functional; conditions: route intraperitoneal
# L1210 [8] = test: Antitumor activity against mouse L1210 cells implanted in CDF1 mouse assessed as median survival time at 0.2 mg/kg, ip single dose on day 1; type: functional; conditions: route intraperitoneal
# L1210 [9] = test: Antitumor activity against mouse L1210 cells implanted in CDF1 mouse assessed as median survival time at 6.4 mg/kg, ip qd for 1 to 5 days; type: functional; conditions: route intraperitoneal
# L1210 [10] = test: Antitumor activity against mouse L1210 cells implanted in CDF1 mouse assessed as median survival time at 3.2 mg/kg, ip qd for 1 to 5 days; type: functional; conditions: route intraperitoneal
# L1210 [11] = test: Antitumor activity against mouse L1210 cells implanted in CDF1 mouse assessed as median survival time at 1.6 mg/kg, ip qd for 1 to 5 days; type: functional; conditions: route intraperitoneal
# L1210 [12] = test: Antitumor activity against mouse L1210 cells implanted in CDF1 mouse assessed as median survival time at 0.8 mg/kg, ip qd for 1 to 5 days; type: functional; conditions: route intraperitoneal
# L1210 [13] = test: Antitumor activity against mouse L1210 cells implanted in CDF1 mouse assessed as median survival time at 0.4 mg/kg, ip qd for 1 to 5 days; type: functional; conditions: route intraperitoneal
# L1210 [14] = test: Antitumor activity against mouse L1210 cells implanted in CDF1 mouse assessed as median survival time at 0.2 mg/kg, ip qd for 1 to 5 days; type: functional; conditions: route intraperitoneal
# L1210 [15] = test: Antitumor activity against mouse L1210 cells implanted in CDF1 mouse at 25.6 mg/kg, ip single dose on day 1 relative to control; type: functional; conditions: route intraperitoneal
# L1210 [16] = test: Antitumor activity against mouse L1210 cells implanted in CDF1 mouse at 12.8 mg/kg, ip single dose on day 1 relative to control; type: functional; conditions: route intraperitoneal
# L1210 [17] = test: Antitumor activity against mouse L1210 cells implanted in CDF1 mouse at 6.4 mg/kg, ip single dose on day 1 relative to control; type: functional; conditions: route intraperitoneal
# L1210 [18] = test: Antitumor activity against mouse L1210 cells implanted in CDF1 mouse at 3.2 mg/kg, ip single dose on day 1 relative to control; type: functional; conditions: route intraperitoneal
# L1210 [19] = test: Antitumor activity against mouse L1210 cells implanted in CDF1 mouse at 1.6 mg/kg, ip single dose on day 1 relative to control; type: functional; conditions: route intraperitoneal
# L1210 [20] = test: Antitumor activity against mouse L1210 cells implanted in CDF1 mouse at 0.8 mg/kg, ip single dose on day 1 relative to control; type: functional; conditions: route intraperitoneal
# L1210 [21] = test: Antitumor activity against mouse L1210 cells implanted in CDF1 mouse at 0.4 mg/kg, ip single dose on day 1 relative to control; type: functional; conditions: route intraperitoneal
# L1210 [22] = test: Antitumor activity against mouse L1210 cells implanted in CDF1 mouse at 0.2 mg/kg, ip single dose on day 1 relative to control; type: functional; conditions: route intraperitoneal
# L1210 [23] = test: Antitumor activity against mouse L1210 cells implanted in CDF1 mouse at 6.4 mg/kg, ip qd for 1 to 5 days relative to control; type: functional; conditions: route intraperitoneal
# L1210 [24] = test: Antitumor activity against mouse L1210 cells implanted in CDF1 mouse at 3.2 mg/kg, ip qd for 1 to 5 days relative to control; type: functional; conditions: route intraperitoneal
# L1210 [25] = test: Antitumor activity against mouse L1210 cells implanted in CDF1 mouse at 1.6 mg/kg, ip qd for 1 to 5 days relative to control; type: functional; conditions: route intraperitoneal
# L1210 [26] = test: Antitumor activity against mouse L1210 cells implanted in CDF1 mouse at 0.8 mg/kg, ip qd for 1 to 5 days relative to control; type: functional; conditions: route intraperitoneal
# L1210 [27] = test: Antitumor activity against mouse L1210 cells implanted in CDF1 mouse at 0.4 mg/kg, ip qd for 1 to 5 days relative to control; type: functional; conditions: route intraperitoneal
# Mus musculus = test: Toxicity in mouse L1210 cells implanted CDF1 mouse assessed as average weight gain at 25.6 mg/kg, ip single dose on day 1; type: organism-based; set-up: dose 25.6 mg/kg, route intraperitoneal; conditions: in vivo
smiles,measurement,setting,value
CC[C@@]1(O)C[C@H](O[C@H]2C[C@H](NC)[C@H](O[C@H]3C[C@H](O)[C@H](O)[C@H](C)O3)[C@H](C)O2)c2c(cc3c(c2O)C(=O)c2c(O)ccc(O)c2C3=O)[C@H]1C(=O)OC [SCHAUNARDIMYCIN],MST,L1210 [1],8 days
same,MST,L1210 [2],8 days
same,MST,L1210 [3],7 days
same,MST,L1210 [4],7 days
same,MST,L1210 [5],6.5 days
same,MST,L1210 [6],6 days
same,MST,L1210 [7],6 days
same,MST,L1210 [8],6 days
same,MST,L1210 [9],8 days
same,MST,L1210 [10],8 days
same,MST,L1210 [11],7.5 days
same,MST,L1210 [12],7 days
same,MST,L1210 [13],7 days
same,MST,L1210 [14],7 days
same,T/C,L1210 [15],133%
same,T/C,L1210 [16],133%
same,T/C,L1210 [17],117%
same,T/C,L1210 [18],117%
same,T/C,L1210 [19],108%
same,T/C,L1210 [20],100%
same,T/C,L1210 [21],100%
same,T/C,L1210 [22],100%
same,T/C,L1210 [23],133%
same,T/C,L1210 [24],133%
same,T/C,L1210 [25],125%
same,T/C,L1210 [26],117%
same,T/C,L1210 [27],117%
same,Activity,Mus musculus,-1.4 g
